For the assay, the target named is T1, human full-length MKNK1 (Homo sapiens, UniProt Q9BUB5, T385D).
T1 construct: GST (N); purchased Carna Biosciences 02-145; host or cells: insect cells, baculovirus expression system
T1 sequence (Q9BUB5 1-424 isoform Q9BUB5-2 T344D): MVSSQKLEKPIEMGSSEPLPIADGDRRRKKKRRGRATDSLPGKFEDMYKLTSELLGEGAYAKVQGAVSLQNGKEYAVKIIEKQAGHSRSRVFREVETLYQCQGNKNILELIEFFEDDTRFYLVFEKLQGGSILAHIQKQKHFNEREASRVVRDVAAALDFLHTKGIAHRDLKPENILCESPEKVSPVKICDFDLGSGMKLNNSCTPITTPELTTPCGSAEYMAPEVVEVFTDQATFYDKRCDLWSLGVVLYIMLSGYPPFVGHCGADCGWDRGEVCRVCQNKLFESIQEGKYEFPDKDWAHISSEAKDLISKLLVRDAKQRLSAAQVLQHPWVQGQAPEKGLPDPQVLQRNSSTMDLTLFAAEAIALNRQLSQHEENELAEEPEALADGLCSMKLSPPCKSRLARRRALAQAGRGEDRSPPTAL
Kind of assay: MKNK1 kinase high ATP assay (TR-FRET). The conditions noted are these: high ATP (2 mM), after preincubation with MKNK1; compounds of the present invention (Table 1a). The format is biochemical. The procedure, abridged: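 GST-tagged full-length human MKNK1 pre-incubated 15 min with compound, then reacted 30 min at 22 °C with 2 mM ATP and 0.06 μM biotinylated peptide substrate (pH 7.5). Phospho-peptide detected by TR-FRET (665/620 nm ratio); normalised to no-inhibitor and no-enzyme controls.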
Broadly, the IC50 is the point on the concentration scale where inhibition reaches its midpoint. A lower IC50 goes with greater potency. The compound `OCC1CCc2c(sc3ncnc(Nc4ccc5[nH]ncc5c4)c23)C1` (racemic) [Example 1, (RS)-[4-(1H-Indazol-5-ylamino)-5,6,7,8-tetrahydro[1]benzothieno[2,3-d]pyrimidin-7-yl]methanol] showed an IC50 of 0.0317 µM.
Take `CC[C@@]1(C(=O)N2CCOCC2)CCc2c(sc3ncnc(Nc4cc5cn[nH]c5cc4OC)c23)C1` [Example 62, (7R) {7-Ethyl-4-[(6-methoxy-1H-indazol-5-yl)amino]-5,6,7,8-tetrahydro[1]benzothieno[2,3-d]pyrimidin-7-yl}(morpholin-4-yl)methanone]: the IC50 was 0.0317 µM.
The value for `COc1cc2[nH]ncc2cc1Nc1ncnc2sc3c(c12)CCC(N(C)C)C3` (racemic) [Example 36, (RS)—N^4-(6-Methoxy-1H-indazol-5-yl)-N^7,N^7-dimethyl-5,6,7,8-tetrahydro[1]benzothieno[2,3-d]pyrimidine-4,7-diamine] was 0.0141 µM; that for `CC[C@@]1(C(=O)N2CCC2)CCc2c(sc3ncnc(Nc4cc5cn[nH]c5cc4OC)c23)C1` [Example 68, (7R) Azetidin-1-yl{(7S)-7-ethyl-4-[(6-methoxy-1H-indazol-5-yl)amino]-5,6,7,8-tetrahydro[1]benzothieno[2,3-d]pyrimidin-7-yl}methanone] was 0.0246 µM; that for `NCC1CCc2c(sc3ncnc(Nc4ccc5[nH]ncc5c4)c23)C1` (racemic) [Example 7, (RS)-7-(Aminomethyl)-N-(1H-indazol-5-yl)-5,6,7,8-tetrahydro[1]benzothieno[2,3-d]pyrimidin-4-amine] was 0.155 µM.
`COc1cc2[nH]ncc2cc1Nc1ncnc2sc3c(c12)CCC(CNC(=O)C(C)(C)O)C3` (racemic) [Example 22, (RS)-2-Hydroxy-N-({4-[(6-methoxy-1H-indazol-5-yl)amino]-5,6,7,8-tetrahydro[1]benzothieno[2,3-d]pyrimidin-7-yl}methyl)-2-methylpropanamide]: the 50% inhibitory concentration (IC50) is 0.004 µM.
The compound `COc1cc2[nH]ncc2cc1Nc1ncnc2sc3c(c12)CC[C@@](C)(C(=O)N1CCOCC1)C3` [Example 53, (7R) {4-[(6-Methoxy-1H-indazol-5-yl)amino]-7-methyl-5,6,7,8-tetrahydro[1]benzothieno[2,3-d]pyrimidin-7-yl}(morpholin-4-yl)methanone] came in with an IC50 of 0.0189 µM.
With `CC(O)C(=O)NCC1CCc2c(sc3ncnc(Nc4ccc5[nH]ncc5c4)c23)C1` (racemic) [Example 12, (2RS)-2-Hydroxy-N-{[(7RS)-4-(1H-indazol-5-ylamino)-5,6,7,8-tetrahydro[1]benzothieno[2,3-d]pyrimidin-7-yl]methyl}propanamide], half-maximal inhibition (IC50) required 0.0196 µM.

The values are drawn from US20160159816A1, “SUBSTITUTED THIENOPYRIMIDINES AND PHARMACEUTICAL USE THEREOF” (BAYER PHARMA AKTIENGESELLSCHAFT, priority 2013, published 2016).
